In publication PMC10803372 (Cell Death & Disease, 2024) one finds IC50 data, which are given here for one molecule.

In the assay the target is T1, PIKfyve (Homo sapiens, UniProt Q9Y2I7).
T1 construct: Recombinant GST-PIKfyve (full-length, #11-118)
Put plainly: in vitro lipid kinase assay, ADP-Glo luminescence, PI([…])P substrate. It is filed as biochemical.

T1 sequence (Q9Y2I7 2-2098): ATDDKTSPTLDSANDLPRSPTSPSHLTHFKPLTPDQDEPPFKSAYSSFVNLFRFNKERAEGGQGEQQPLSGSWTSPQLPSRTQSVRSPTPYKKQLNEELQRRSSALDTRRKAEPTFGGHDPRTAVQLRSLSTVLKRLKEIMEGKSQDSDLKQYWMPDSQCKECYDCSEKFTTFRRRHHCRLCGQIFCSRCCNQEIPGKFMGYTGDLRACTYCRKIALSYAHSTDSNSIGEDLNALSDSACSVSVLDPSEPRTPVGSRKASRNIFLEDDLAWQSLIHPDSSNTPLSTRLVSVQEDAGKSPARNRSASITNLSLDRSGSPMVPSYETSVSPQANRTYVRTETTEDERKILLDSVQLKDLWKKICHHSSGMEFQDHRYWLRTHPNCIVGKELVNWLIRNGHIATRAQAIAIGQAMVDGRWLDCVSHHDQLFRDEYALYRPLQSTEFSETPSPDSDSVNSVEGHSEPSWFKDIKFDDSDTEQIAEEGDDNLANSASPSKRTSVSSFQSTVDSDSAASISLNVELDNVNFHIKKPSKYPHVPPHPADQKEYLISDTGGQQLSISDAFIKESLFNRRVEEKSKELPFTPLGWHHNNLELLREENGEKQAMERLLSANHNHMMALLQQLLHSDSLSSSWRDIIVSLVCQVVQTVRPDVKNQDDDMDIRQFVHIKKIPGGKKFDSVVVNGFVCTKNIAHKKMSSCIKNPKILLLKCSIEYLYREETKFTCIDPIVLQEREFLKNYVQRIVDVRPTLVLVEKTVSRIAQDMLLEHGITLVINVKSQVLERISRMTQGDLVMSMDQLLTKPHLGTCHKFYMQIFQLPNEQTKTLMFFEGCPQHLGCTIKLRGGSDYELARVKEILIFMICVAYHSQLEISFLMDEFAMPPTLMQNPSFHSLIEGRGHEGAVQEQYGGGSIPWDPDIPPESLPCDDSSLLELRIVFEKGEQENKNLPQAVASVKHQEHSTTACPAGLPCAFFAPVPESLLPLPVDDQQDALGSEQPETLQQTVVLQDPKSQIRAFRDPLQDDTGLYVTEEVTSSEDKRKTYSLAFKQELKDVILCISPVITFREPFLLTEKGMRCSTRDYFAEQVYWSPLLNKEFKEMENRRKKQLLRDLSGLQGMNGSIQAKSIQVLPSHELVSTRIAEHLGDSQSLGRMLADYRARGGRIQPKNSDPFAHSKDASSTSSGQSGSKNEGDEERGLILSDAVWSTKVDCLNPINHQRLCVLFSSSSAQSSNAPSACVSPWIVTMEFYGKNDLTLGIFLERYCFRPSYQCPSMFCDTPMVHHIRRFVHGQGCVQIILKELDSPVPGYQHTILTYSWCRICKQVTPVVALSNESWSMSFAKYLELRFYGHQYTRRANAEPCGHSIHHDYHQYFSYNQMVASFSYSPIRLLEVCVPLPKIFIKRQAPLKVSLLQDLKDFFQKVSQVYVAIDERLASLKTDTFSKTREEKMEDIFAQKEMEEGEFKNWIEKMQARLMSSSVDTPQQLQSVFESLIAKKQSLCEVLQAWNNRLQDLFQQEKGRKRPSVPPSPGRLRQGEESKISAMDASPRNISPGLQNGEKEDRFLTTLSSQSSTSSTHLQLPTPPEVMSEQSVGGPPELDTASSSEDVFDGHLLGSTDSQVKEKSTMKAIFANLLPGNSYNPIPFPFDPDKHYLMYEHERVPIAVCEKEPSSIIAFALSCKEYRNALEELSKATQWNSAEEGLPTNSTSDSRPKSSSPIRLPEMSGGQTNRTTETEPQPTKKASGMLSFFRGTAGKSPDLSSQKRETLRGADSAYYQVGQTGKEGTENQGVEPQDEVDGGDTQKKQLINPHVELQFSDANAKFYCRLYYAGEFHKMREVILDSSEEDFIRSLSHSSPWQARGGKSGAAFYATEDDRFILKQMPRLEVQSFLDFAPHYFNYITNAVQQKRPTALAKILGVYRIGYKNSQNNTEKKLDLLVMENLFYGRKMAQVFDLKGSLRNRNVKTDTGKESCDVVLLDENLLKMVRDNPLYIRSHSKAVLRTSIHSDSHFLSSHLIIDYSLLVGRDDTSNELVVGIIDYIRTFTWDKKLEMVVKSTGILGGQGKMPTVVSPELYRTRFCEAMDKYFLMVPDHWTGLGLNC

`Oc1ccc(-c2nc(-c3ccncc3)c(-c3ccc(F)cc3)[nH]2)cc1` [SB202190]: the IC50 turned out to be 355 ± 36.2 nM.
